Results reported in the supplement of paper PMC10307832.

Key:
Experiment in all cases: relative viability (nuclei count vs DMSO), 5 days (fraction); higher = more cells survive
[1] = compound: CC1CC(=O)N(C2=CN=C(N=C2N1C3CCCC3)NC4=C(C=C(C=C4)C(=O)NC5CCN(CC5)C)OC)C [NPK76-II-72-1] + CC(C)C[C@H](NC(=O)[C@H](Cc1ccccc1)NC(=O)c1cnccn1)B(O)O [Bortezomib] (partner 0.002 µM)
Summary of the method: (§1)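 Nuclei were stained with Hoechst during a one-step fixation (final 0.05% Triton X-100, 1% formaldehyde, 1 ug/ml Hoechst) carried out 5 days after dosing, then counted on 4× images. The cells, lung cancer lines in 1536-well plates, had been dosed by pin tool the day after seeding with one drug alone or a fixed anchor-drug dose plus five library-drug doses (not always all listed) in √10 steps. Relative viability is the nuclei count in treated wells divided by that in vehicle wells, and each value is the median of duplicate plates.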

[2] = compound: CC1CC(=O)N(C2=CN=C(N=C2N1C3CCCC3)NC4=C(C=C(C=C4)C(=O)NC5CCN(CC5)C)OC)C [NPK76-II-72-1] + CC1(C)CCC(c2ccc(Cl)cc2)=C(CN2CCN(c3ccc(C(=O)NS(=O)(=O)c4ccc(N[C@H](CCN5CCOCC5)CSc5ccccc5)c(S(=O)(=O)C(F)(F)F)c4)cc3)CC2)C1 [Navitoclax] (partner 0.5 µM)
Summary of the method: as §1

[3] = compound: CC1CC(=O)N(C2=CN=C(N=C2N1C3CCCC3)NC4=C(C=C(C=C4)C(=O)NC5CCN(CC5)C)OC)C [NPK76-II-72-1] + Nc1nc2[nH]cc(CCc3ccc(C(=O)N[C@@H](CCC(=O)O)C(=O)O)cc3)c2c(=O)[nH]1 [Pemetrexed] (partner 0.2 µM)
Summary of the method: as §1

BI-2536 + Phenformin = compound: CC[C@@H]1C(=O)N(C)c2cnc(Nc3ccc(C(=O)NC4CCN(C)CC4)cc3OC)nc2N1C1CCCC1 [BI-2536] + N=C(N)NC(=N)NCCc1ccccc1 [Phenformin] (partner 250 µM)
Summary of the method: as §1

Cell Line | relative viability ([1]; first compound 0.01 µM) | relative viability ([1]; first compound 0.03162 µM) | relative viability ([1]; first compound 0.1 µM) | relative viability ([1]; first compound 0.3162 µM) | relative viability ([1]; first compound 1 µM) | relative viability ([2]; first compound 0.01 µM) | relative viability ([2]; first compound 0.03162 µM) | relative viability ([2]; first compound 0.1 µM) | relative viability ([2]; first compound 0.3162 µM) | relative viability ([2]; first compound 1 µM) | relative viability ([3]; first compound 0.01 µM) | relative viability ([3]; first compound 0.03162 µM) | relative viability ([3]; first compound 0.1 µM) | relative viability ([3]; first compound 0.3162 µM) | relative viability ([3]; first compound 1 µM) | relative viability (BI-2536 + Phenformin; first compound 0.01 µM) | relative viability (BI-2536 + Phenformin; first compound 0.03162 µM) | relative viability (BI-2536 + Phenformin; first compound 0.1 µM) | relative viability (BI-2536 + Phenformin; first compound 0.3162 µM) | relative viability (BI-2536 + Phenformin; first compound 1 µM)
HOP-62 | 0.743 | 0.754 | 0.433 | 0.916 | 0.824 | 0.973 | 1.12 | 0.947 | 1.06 | 0.954 | 0.291 | 0.374 | 0.296 | 0.245 | 0.32 | 0.7 | 0.654 | 0.43 | 0.141 | 0.141
LC-2-ad | 0.981 | 1.04 | 0.926 | 1.01 | 1.07 | 0.469 | 0.501 | 0.599 | 0.395 | 0.541 | 0.24 | 0.281 | 0.269 | 0.266 | 0.272 | 0.609 | 0.545 | 0.257 | 0.203 | 0.292
LCLC-97TM1 | 0.638 | 0.727 | 0.561 | 0.606 | 0.703 |  | 0.392 | 0.52 | 0.439 | 0.488 | 0.178 | 0.196 | 0.164 | 0.158 | 0.155 | 0.43 | 0.432 | 0.366 | 0.137 | 0.154
LOU-NH91 | 0.488 | 0.483 | 0.463 | 0.432 | 0.35 | 0.635 | 0.66 | 0.666 | 0.517 | 0.833 | 0.348 | 0.402 | 0.381 | 0.44 | 0.35 | 0.706 | 0.662 | 0.583 | 0.273 | 0.252
LU99A | 1.17 | 1.28 | 1.23 | 0.952 | 1.3 | 0.804 | 0.766 | 0.785 | 0.889 | 0.692 | 0.181 | 0.172 | 0.205 | 0.163 | 0.22 | 0.816 | 0.823 | 0.212 | 0.197 | 0.2
LXF-289 | 1.02 | 1.06 | 0.955 | 1.04 | 1.02 | 0.877 | 0.964 | 0.954 | 0.88 | 0.941 | 0.885 | 0.976 | 0.89 | 0.892 | 0.855 | 0.467 | 0.488 | 0.159 | 0.0389 | 0.039
NCI-H23 | 0.856 | 1.22 |  | 1.06 | 1.12 | 0.774 | 1.08 |  | 0.675 | 0.784 | 0.52 | 0.915 | 0.597 | 0.71 | 0.777 | 0.769 | 0.781 | 0.415 | 0.115 | 0.122
NCI-H322M | 1.17 | 1.3 | 1.24 | 1.39 | 1.36 | 1.19 | 1.2 | 1.18 | 1.24 | 1.32 | 0.606 | 0.566 | 0.601 | 0.539 | 0.595 | 0.76 | 0.725 | 0.497 | 0.341 | 0.251
NCI-H441 | 0.872 | 0.312 | 0.319 | 0.527 | 0.451 | 0.634 | 0.946 | 0.671 | 0.533 | 0.73 | 0.293 | 0.266 | 0.246 | 0.274 | 0.25 | 0.805 | 0.492 | 0.23 | 0.217 | 0.228
NCI-H460 | 1.02 | 1.26 | 1.11 | 1.01 | 1.18 | 1.17 | 1.45 | 1.19 | 1.18 | 1.23 | 0.061 | 0.0655 | 0.0657 | 0.0656 | 0.0639 | 0.524 | 0.409 | 0.0506 | 0.0146 | 0.0134
NCI-H520 | 0.731 | 0.766 | 0.385 | 0.514 | 0.544 | 0.927 | 1.05 | 1.01 | 1.04 | 1.03 | 0.575 | 0.741 | 0.427 | 0.65 | 0.825 | 0.572 | 0.408 | 0.218 | 0.255 | 0.281
NCI-H596 | 0.838 |  | 0.999 | 1 | 0.966 | 0.862 | 1.01 | 0.828 | 0.965 | 1.04 | 0.522 | 0.503 | 0.485 | 0.482 | 0.462 | 0.729 | 0.737 | 0.917 | 0.358 | 0.245
NCI-H647 | 0.847 | 1.1 |  | 0.853 | 1.05 | 0.986 | 1.05 | 1.23 | 1.11 | 1.2 | 0.189 | 0.174 | 0.171 | 0.172 | 0.198 | 0.423 | 0.349 | 0.107 | 0.059 | 0.0765
NCI-H838 | 0.768 | 0.885 | 0.988 | 0.771 | 0.715 | 1.11 | 1.19 | 1.19 | 1.09 | 1.11 | 0.277 | 0.251 | 0.263 | 0.237 | 0.245 | 0.571 | 0.329 | 0.116 | 0.116 | 0.105
NCI-H1355 | 1.06 | 1.12 | 1.03 | 1.13 | 1.19 | 0.881 | 0.959 | 0.928 | 0.871 | 0.993 | 1.02 | 1 | 0.99 | 0.972 | 1.06 | 0.427 | 0.408 | 0.219 | 0.193 | 0.196
NCI-H1437 | 0.473 | 0.445 | 0.425 | 0.409 | 0.494 | 1.17 | 1.11 | 0.967 | 0.978 | 1.13 | 0.319 | 0.305 | 0.307 | 0.305 | 0.352 | 0.289 | 0.23 | 0.145 | 0.143 | 0.154
NCI-H1650 | 0.211 | 0.191 | 0.183 | 0.218 | 0.211 | 1.08 | 1.12 | 1.23 | 1.12 | 1.07 | 0.325 | 0.368 | 0.345 | 0.399 | 0.358 | 0.425 | 0.3 | 0.166 | 0.141 | 0.134
NCI-H1651 | 0.95 | 0.954 | 0.903 | 0.9 | 0.991 | 0.915 | 1.04 | 1.11 | 0.953 | 1.1 | 0.534 | 0.61 | 0.611 | 0.527 | 0.6 | 0.296 | 0.197 | 0.136 | 0.104 | 0.102
NCI-H1666 | 0.9 | 0.801 | 0.73 | 0.647 | 1.03 | 0.917 | 0.858 | 0.961 | 0.722 | 1.06 | 0.844 | 0.802 | 0.88 | 0.78 | 0.917 | 0.564 | 0.576 | 0.435 | 0.313 | 0.341
NCI-H1734 | 0.879 | 0.96 | 0.969 | 0.779 | 1.13 | 0.861 | 0.896 | 0.823 | 0.766 | 0.866 | 0.428 | 0.402 | 0.413 | 0.418 | 0.416 | 0.393 | 0.24 | 0.159 | 0.151 | 0.167
NCI-H1755 | 0.932 | 0.898 | 0.95 | 0.98 | 1.08 | 0.942 | 1.01 | 0.953 | 0.989 | 1.02 | 0.385 | 0.405 | 0.464 | 0.544 | 0.405 | 0.603 | 0.578 | 0.328 | 0.237 | 0.253
NCI-H1792 | 1.06 | 0.961 | 0.829 | 0.879 | 1.07 | 0.599 | 0.553 | 0.606 | 0.624 | 0.726 |  | 0.961 | 0.627 | 0.636 | 1.06 | 0.451 | 0.49 | 0.301 | 0.0773 | 0.0991
NCI-H1915 | 0.981 | 1.04 | 0.848 | 0.865 | 1.02 | 0.749 | 0.795 | 0.786 | 0.736 | 0.826 | 0.459 | 0.527 | 0.452 | 0.475 | 0.533 | 0.351 | 0.328 | 0.12 | 0.0657 | 0.0862
NCI-H1975 | 0.34 | 0.37 | 0.292 | 0.41 | 0.402 | 0.956 | 1.05 | 1.04 | 0.993 | 1.26 | 0.261 | 0.288 | 0.274 | 0.297 | 0.303 | 0.394 | 0.355 | 0.215 | 0.126 | 0.118
NCI-H1993 | 1 | 1.09 | 0.775 | 0.729 | 0.873 | 1.05 | 0.969 | 0.884 | 0.706 | 1.01 | 0.515 | 0.566 | 0.474 | 0.566 | 0.644 | 0.493 | 0.432 | 0.52 | 0.41 | 0.475
NCI-H2009 | 1.01 | 1.1 | 1.09 | 0.842 | 1.24 | 1.11 | 1.28 | 1.1 | 1.14 | 1.17 | 0.971 | 1.18 | 1 | 1.02 | 1.04 | 0.468 | 0.406 | 0.233 | 0.183 | 0.105
NCI-H2023 | 0.968 | 1.09 | 1.15 | 1.01 | 1.23 | 0.943 | 0.947 | 0.969 | 0.923 | 1.01 | 0.229 | 0.228 | 0.236 | 0.253 | 0.268 | 0.406 | 0.408 | 0.119 | 0.0985 | 0.0823
